Read-outs that look alike come from different tables or passages of the source.

These results are taken from US10329304B2, “Compounds and methods for inhibition of hedgehog signaling and phosphodiesterase” (Vanderbilt University, priority 2014, dated 2019).

The nature of data set [1]: Lipophilic efficiency (LipE = pEC50 − cLogP) and cLogP. As to the method:
Therefore, we prioritized phenotypic analog evaluation in the Gli-responsive luciferase reporter line TM3-Gli-Luc stimulated with 20 nM Smo agonist (SAG) while concurrently monitoring non-specific cellular toxicity. Additionally, lipophilic efficiency (LipE), a concurrent readout of a compound's potency (pEC50) and lipophilicity (cLogP) derived by subtracting the latter from the former, was utilized to optimize solubility properties (Table 12B), allowing for straightforward tracking of compounds with improvements in both parameters.

Data set [2] has as its system Hedgehog signaling (TM3-Gli-Luc). Description: TM3-Gli-Luc luciferase reporter assay stimulated with 20 nM SAG. It is filed as cell-based. Summed up: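 Luciferase read-out divided by CellTiter-Glo viability, minus DMSO/no-SAG baseline, expressed relative to 20 nM SAG alone. Cells exposed to compound with SAG for 48 h at 37 °C in 2.5% FBS DMEM/F12 on gelatin. EC50 ±SEM from at least two separate-day runs.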

In data set [3] the test system is Gli1 transcription. The data set is described as follows: Sufu−/− mouse embryonic fibroblasts qRT-PCR. Format: cell-based. An excerpt: (§1) In light of EGM1's ability to halt Hh transcriptional activity at a node downstream of the negative regulator Sufu, and thus also downstream of Smo, we sought to confirm mode of action retention with our most promising analogs. Therefore, we employed Sufu−/− mouse embryonic fibroblasts (MEF) that display constitutively active transcription of Hh target genes Gli1 and Ptch1 and monitored the ability of our optimized analogs to repress signaling via quantitative reverse transcription-PCR (qRT-PCR). […] We then evaluated improved analogs from multiple structural classes including those from Table 1 with cyclohexylthiophene cores as well as from Table 13 with structurally distinct core modifications.
(§2) Sufu^−/− cells were seeded into 12-well plates at a density of 100,000 cells/well in D10 FBS and incubated for 24 hours. Small molecule solutions were prepared by adding the desired amount of compound from 10 mM DMSO stock to D0.5 FBS. Negative control was prepared by adding an equi-volume amount of DMSO to D0.5 FBS as compared to small molecule treated conditions. Cell plating medium was aspirated and replaced with 1 mL of prepared small molecule-containing media, and plates were incubated for 24 hours before proceeding to RNA isolation.
(§3) Cells were washed 1× with 1× phosphate-buffered saline (PBS) then RNA was isolated using the Qiagen RNeasy Mini Kit (Qiagen, Germantown, Md., USA) according to the manufacturer's protocol, eluting RNA from the spin column with 30 μL of RNase-free water. RNA was placed on ice and immediately subjected to reverse transcription. Remaining RNA was stored at −80° C.
(§4) Reverse transcription polymerase chain reaction (RT-PCR) was performed with the Applied Biosystems High Capacity cDNA Reverse Transcription Kit (ThermoFisher Scientific, Waltham, Mass., USA) using an Eppendorf MasterCycler. Each 20 μL reaction contained 0.5 μg of total RNA, 2 μL of 10×RT Buffer, 0.8 μL of 25×dNTP Mix (100 mM), 2 μL of 10×RT Random Primers, 1 μL of MultiScribe® Reverse Transcriptase (50 U/μL), 1 μL of Recombinant RNasin® Ribonuclease Inhibitor (40 U/μL) (Promega, Madison, Wis., USA), and nuclease-free water. Reverse transcription was performed with the following program: 25° C. for 10 minutes, 37° C. for 120 minutes, and 85° C. for 5 minutes. The cDNA was subjected to quantitative real-time PCR (Q-PCR) or stored at −20° C.
(§5) Quantitative real-time PCR was performed on an Applied Biosystems 7900 HT Fast Real Time PCR System in 384-well format. Each cDNA sample was assayed in triplicate with both probe of interest and control probe. Master mixes for each probe were prepared corresponding to 10 μL of Applied Biosystems TaqMan Universal PCR Master Mix (ThermoFisher Scientific, Waltham, Mass., USA), 1 μL of primer, and nuclease-free water corresponding to a volume providing 20 μL reactions when loading an average of 50 ng of cDNA. Quantitative real-time PCR was run with the following thermal cycling protocol: 50° C. for 2 min., 95° C. for 10 min., and 40 cycles of 95° C. for 15 seconds, 60° C. for 1 min., then fluorescence reading. The following FAM probes were purchased from Life Technologies (Carlsbad, Calif., USA): mouse GAPDH, Mm99999915_g1; mouse Gli1, Mm00494646_g1; mouse Ptch1, Mm01306905_m1.
(§6) Quantitative real-time PCR data for Hh signaling inhibition was quantitated using the ΔΔCt method. Control probe values were subtracted from probe of interest values to arrive at the ΔCt value. The ΔCt value was transformed by 2-^ΔCt to arrive at the ΔΔCt value. All ΔΔCt values were divided by the average negative control ΔΔCt value to provide percent Hh signaling activity. Percent inhibition values were derived by calculating the inverse of percent activity. Data is reported as mean±standard error of the mean (SEM), representing at least two biological replicates, each quantitated in triplicate.

The test system of data set [4] is zebrafish embryos. The data set is described as follows: Zebrafish embryo phenotypic assay (ZF). It is filed as in vivo. The note with it: wild-type embryonic zebrafish, dosed 5 hpf. Summed up: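 Phenotype scored by gross morphology at 24, 48 and 72 hours post-fertilization. Compound added at 5 hpf, from 1 mM or 10 mM stocks in DMSO, to about 10 wild-type AB embryos in E3 water. In the original screen, 5 μM final was applied near 4 hpf at 28.5 °C.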

Data set [5] has as its system Ptch1 transcription. The data set is described as follows: Sufu−/− mouse embryonic fibroblasts qRT-PCR. It is filed as cell-based. Conditions: for inhibition at 10 µM: Mus musculus, Fibroblast, read-out: Sufu Null (Ptc) % Inh., 10 μM.
Excerpt: as §1, §2, §3, §4, §5, §6

In data set [6] the test system is Gli1 mRNA. Description: Hh % Inh.: SAG-induced Gli1 expression in C3H10T½ cells (qPCR). It is filed as cell-based. Conditions: Mus musculus, C3H 10T1/2, SAG-induced (100 nM), 24 hours; for inhibition at 1 µM: 1 pM [sic], read-out: C3H10T1/2 qPCR, Gh1 mRNA % Inh., 1 pM; for inhibition at 10 µM: 10 pM [sic], read-out: C3H10T1/2 qPCR, Gh1 mRNA % Inh., 10 pM; for EC50: read-out: C3H10T1/2 qPCR, Gh1 mRNA EC50. How it is done: Compounds are dosed from 10 mM DMSO stock solutions, and mRNA is isolated after 24 hours of compound treatment. mRNA is reverse transcribed to produce cDNA which is quantified by quantitative polymerase chain reaction (qPCR) in triplicate and levels are normalized to GAPDH levels. Data is presented as percent inhibition compared to positive control (SAG).

Data set [7] concerns the target T1, Smo cyclopamine (Cyc) binding site (Homo sapiens, UniProt Q99835).
T1 construct: expressed in transfected cells; host or cells: HEK-293T
Description: BODIPY-cyclopamine competition in HEK-293T cells overexpressing Smo. As to the method: Thus, HEK-293T cells overexpressing Smo were concurrently treated with 5 nM BODIPY-Cyc and molecules of interest.

Data set [8] deals with PKA activation. Description: Immunostaining of autophosphorylated PKA catalytic subunit in NIH3T3 cells. The note with it: SAG-stimulated NIH3T3 cells, Egm 5 μM, Rolipram 10 μM. Format: cell-based. How it is done:
NIH3T3 cells were plated on Poly-D-Lysine-coated glass coverslips and were cultured at 37° C., 5% CO2 in DMEM medium containing 10% fetal bovine serum until reaching 75% confluency. For one set of experiments, cells were then transfected with VSV-tagged PDE4D3 plasmid (gift from Miles Houslay, University of Glasgow, Scotland, UK) using Fugene6 transfection reagent (Roche, Indianapolis, Ind.) per manufacturer's protocol. Afterward, cell medium was replaced with DMEM/0.5% FBS containing either 5 μM eggmanone or DMSO and incubated overnight at 37° C., 5% CO2. Cells were fixed in 4% PFA at room temperature for 10 minutes prior to permeabilization, blocking, and staining with primary antibodies against Arl13b (gift of Tamary Caspary, Emory University, Atlanta, Ga.) and VSV (AbCam, Cambridge, Mass.). Fluorescent immunocytochemistry was performed using species-specific, secondary antibodies (Jackson Immunoresearch, West Grove, Pa.). For additional immunocytochemistry experiment, cells were treated with 20 nM SAG in the presence or absence of 5 uM Eggmanone. After overnight incubation, cells were washed with PBS, fixed for 10 minutes in 4% PFA, permeabilized 20 minutes at −20C with cold methanol, blocked with PBS/1% BSA, and incubated with primary antibodies to phospho-PKA catalytic domain Thr197 (Cell Signaling, Danvers, Mass.) and then to Arl13b. An additional overnight blocking step using unconjugated rabbit IgG was required between primary antibody incubations since both antibodies were produced in rabbit. Fluorescent conjugated secondary antibodies were used for visualization. Data analysis was performed in part through the use of the VUMC Cell Imaging Shared Resource.
Using ImageJ software (National Institutes of Health, developed by W. Rasband), a region of interest was created using the magic wand tool on Arl13b channel and transposed to the Gli2 channel, and integrated density was measured and reported as arbitrary units (a.u.). For phospho-PKA, using ImageJ, a line selection tool was used to select a line projected through the length of the primary cilia and an equal length beyond. The intensity values were potted and the cumulative florescence (area under the curve) was calculated for three cilia, blindly, for each treatment. These values for cilia and pericilia domain were analyzed by a two tailed students t-test. For correlation analysis, correlation coefficient for intensity of gamma-tubulin and phosphor-PKA were calculated and compared among treatments with students t-test.

The mark [9] stands for this setting: Calculated as pEC50 - cLogP, Molinspiration Cheminformatics.
Setting [10] is: 20 nM SAG, mean ± standard error of the mean, read-out: TM3-Gli-Luc EC50.
Setting [11] is: TM3-Gli-Luc reporter line stimulated with 20 nM SAG, mean ± SEM, Table 14, read-out: TM3-Gli-Luc EC50.
Setting [12] is: Table 9A, read-out: TM3 G8 Luciferase EC 50.

T1 sequence (Q99835 28-787): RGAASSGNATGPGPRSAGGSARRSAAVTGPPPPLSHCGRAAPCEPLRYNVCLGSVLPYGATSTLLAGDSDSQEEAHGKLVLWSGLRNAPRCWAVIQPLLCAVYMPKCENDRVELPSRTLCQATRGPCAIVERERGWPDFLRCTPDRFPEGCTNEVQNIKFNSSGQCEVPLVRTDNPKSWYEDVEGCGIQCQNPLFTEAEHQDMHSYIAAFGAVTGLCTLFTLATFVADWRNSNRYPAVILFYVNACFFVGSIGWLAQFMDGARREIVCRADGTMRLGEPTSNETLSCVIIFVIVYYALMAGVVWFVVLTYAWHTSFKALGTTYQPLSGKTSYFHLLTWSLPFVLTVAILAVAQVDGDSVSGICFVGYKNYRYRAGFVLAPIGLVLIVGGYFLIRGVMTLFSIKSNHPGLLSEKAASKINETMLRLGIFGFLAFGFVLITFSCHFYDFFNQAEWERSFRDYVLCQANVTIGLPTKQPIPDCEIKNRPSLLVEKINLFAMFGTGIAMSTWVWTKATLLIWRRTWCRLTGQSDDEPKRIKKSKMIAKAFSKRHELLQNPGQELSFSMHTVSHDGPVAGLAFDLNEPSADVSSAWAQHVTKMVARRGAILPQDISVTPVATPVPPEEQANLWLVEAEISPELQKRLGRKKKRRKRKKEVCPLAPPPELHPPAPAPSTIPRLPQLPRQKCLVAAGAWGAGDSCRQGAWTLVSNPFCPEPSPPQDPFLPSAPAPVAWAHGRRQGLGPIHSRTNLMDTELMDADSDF

In the case of `O=C(CSc1nc2sc3c(c2c(=O)n1C1CC1)CCCC3)c1cccs1` [Formula 9b], the LipE is 1.40 in data set [1] (setting [9]) and 1.40 in data set [1] (pEC50 - cLogP, Table 14). In addition, the EC50 in data set [2] (setting [10]) and in data set [2] (setting [11]) was 1890 ± 750 nM in each case. Also, the “Transcriptional inhibition in the Sufu−/− cell line, in words” value in data set [3] (Gli1 and Ptch1) was “general ability to inhibit transcriptional activity”.
As to `O=C(CSc1nc2sc3c(c2c(=O)n1C1CC1)CCCC3)c1ccccc1` [JEH-1-163-1], the “ZF Phenotype EC100” value in data set [4] turned out to be 0.81 µM. For the same compound, in data set [2] (setting [12]), the EC50 was 1960 nM. Also, the inhibition at 10 µM in data set [5] amounted to 41.9%.
Turning to `C=C(C)Cn1c(SCC(=O)N2CCCCC2)nc2sc3c(c2c1=O)CCCC3` [JEH-3-048-3], in data set [6], the inhibition at 1 µM stood at 33.8% and the inhibition at 10 µM came to 98.6%. Moreover, in data set [2] (setting [12]), the EC50 is 6310 nM. Further, the inhibition at 10 µM in data set [5] was -13.7%.
As to `C=C(C)Cn1c(SCC(=O)N2CCCCC2C)nc2sc3c(c2c1=O)CCCC3` (stereo not drawn) [JEH-3-069-2], in data set [6], the inhibition at 1 µM turned out to be 38.6%, the inhibition at 10 µM was 97.6% and the EC50 amounted to 2740 nM. Moreover, the EC50 in data set [2] (setting [12]) was determined as 2500 nM. Besides, the inhibition at 10 µM in data set [5] worked out at 77.6%.
Consider `C=C(C)Cn1c(SCC(=O)c2cccn2C)nc2sc3c(c2c1=O)CCCC3` [JEH-3-077], for which, in data set [6], the inhibition at 1 µM is 47.1%, the inhibition at 10 µM is 89.1% and the EC50 is 1130 nM. The inhibition at 10 µM in data set [5] was found to be 52.1%.
In the case of `CCn1c(SCC(=O)c2cccs2)nc2sc3c(c2c1=O)CCCC3` [JEH-3-087-1], the inhibition at 1 µM in data set [6] amounted to 39.5%. The values for the inhibition at 10 µM in data set [6] and in data set [5] were 96.1% and 21.6%, respectively. In addition, the EC50 in data set [6] was 1370 nM; in data set [2] (setting [12]), 12000 nM.
For `CCCn1c(SCC(=O)c2cccs2)nc2sc3c(c2c1=O)CCCC3` [JEH-3-087-2], in data set [6], the inhibition at 1 µM was determined as 64.2%, the inhibition at 10 µM was 101% and the EC50 was found to be 789 nM. The EC50 in data set [2] (setting [12]) came to 1580 nM. Besides, the inhibition at 10 µM in data set [5] was found to be 12.1%.
In the case of `CC1=C2C[C@H]3[C@@H](CC=C4CC(=O)CC[C@@]43C)[C@@H]2CC[C@]12O[C@@H]1C[C@H](C)CN(CCNC(=O)CCCCCNC(=O)CCc3ccccc3)[C@H]1[C@H]2C` [KAAD-Cyc, KAAD-cyclopamine, reference compound], in data set [7], the “Displacement of BODIPY-cyclopamine (5 nM) from Smo” value was “completely displaced BODIPY-Cyc”.
With `Cc1c(C(=O)Nc2ccc(N3C[C@@H](C)O[C@@H](C)C3)nc2)cccc1-c1ccc(OC(F)(F)F)cc1` [Sonidegib, reference compound], the LipE is recorded as 3.02 in data set [1] (setting [9]) and 3.02 in data set [1] (pEC50 - cLogP, Table 14). For the same compound, the “Hh inhibitory activity / potency in words” value was “displayed expected potency” in data set [2] (20 nM SAG) and “low-nanomolar” in data set [2] (20 nM SAG, listed as 2). The EC50 in data set [2] (setting [10]) and in data set [2] (setting [11]) was 1.2 ± 0.2 nM throughout. For the same compound, the “inhibition of Ptch1 transcription” value in data set [5] (0.1 μM) is “failed to inhibit transcription”. The “inhibition of Gli1 transcription” value in data set [3] (0.1 μM) is given as “failed to inhibit transcription”.
As for `CCCC(=O)Nc1ncnc2c1ncn2[C@@H]1O[C@@H]2COP(=O)(O)O[C@H]2[C@H]1OC(=O)CCC` [dibutyril cAMP (DBA), dibutyril cAMP, reference compound], the figures for the “PKA activation (phospho-PKA-C staining), spatial distribution” value in data set [8] and in data set [8] (listed as dibutyril cAMP) were “induce spatially localized PKA activation in the basal body” and “more diffuse increase in phospho-PKA staining”, respectively.
